Where two headings read alike, the source gives them in different places.
Experiments:
[1] = biological target: T1, GSPT1 (Homo sapiens, UniProt P15170+Q96SW2); experiment: GSPT1 degradation, Western Blot, MV-4-11 cells, 0.1 μM, 4 hours; assay type: cell-based; conditions: MV4-11, % reduction of GSPT1 compared to DMSO, normalized to GAPDH, read-out: GSPT1 degradation classification
Method: Compounds of the present disclosure was added to cells (final DMSO concentration of 0.1%) and incubated for 4 hours. GSPT1 levels were determined in MV-4-11 cells using Western Blot analysis. […] Protein levels were normalized to GAPDH levels.
The efficacy of GSPT1 degradation of a part of compounds of the present disclosure was determined by treating MV-4-11 cells at 0.1 μM (final DMSO concentration of 0.1%) for 4 hours. GSPT1 levels were determined using Western Blot and normalized to GAPDH levels.

[2] = test system: MV-4-11 cells; experiment: AML cell viability, CellTiter-Glo, MV-4-11 cells; assay type: cell-based; conditions: Homo sapiens, MV4-11, CellTiter-Glo, read-out: Cell viability classification
Method: MV4-11 cells were obtained from ATCC and grown in IMDM supplemented with 10% FBS. The cells were maintained at 37° C. under 5% CO2. […] The luminescence was normalized to that of DMSO-treated samples. IC50 values were obtained using three-parameter non-linear regressions using Prism (GraphPad). […] Cell viability was measured using the CellTiter-Glo reagent after 44 hours of treatment. […] MV4-11 cells were obtained from ATCC and grown in IMDM supplemented with 10% FBS. The cells were maintained at 37° C. under 5% CO2. […] Cell viability was measured using the CellTiter-Glo reagent after 44 hours of treatment.

[3] = test system: HCC827 cells; experiment: NSCLC cell viability, CellTiter-Glo, HCC827 cells; assay type: cell-based; conditions: Homo sapiens, read-out: Cell viability classification
Method: (§1) HCC827 cells were obtained from Korean Cell Line Bank (KCLB) and grown in RPMI supplemented with 10% FBS. The cells were maintained at 37° C. under 5% CO2.
(§2) The efficacy of the present disclosure to reduce viability of Non-Small Cell Lung Cancer (NSCLC) cells was assessed using CellTiter-Glo Cell Viability Assay (Promega) according to the manufacturer's protocol. […] The luminescence was normalized to that of DMSO-treated samples. IC50 values were obtained using three-parameter non-linear regressions using Prism (GraphPad).
The efficacy of additional compounds of the present disclosure in reducing HCC827 cell viability was determined by treating HCC827 cells at various concentrations (final DMSO concentration of 0.1%). Cell viability was measured using the CellTiter-Glo reagent after 72 hours of treatment.

[4] = test system: A549 cells; experiment: NSCLC cell viability, CellTiter-Glo, A549 cells; assay type: cell-based; conditions: Homo sapiens, 72 hours of treatment, read-out: Cell viability classification
Method: A549 cells were obtained from Korean Cell Line Bank (KCLB) and grown in RPMI supplemented with 10% FBS. The cells were maintained at 37° C. under 5% CO2.
as §2
The efficacy of additional compounds of the present disclosure in reducing A549 cell viability was determined by treating A549 cells at various concentrations (final DMSO concentration of 0.1%). Cell viability was measured using the CellTiter-Glo reagent after 72 hours of treatment.

[5] = biological target: T1, GSPT1; experiment: GSPT1 degradation, Western Blot, HCC827 cells, 1 μM, 16 hours; assay type: cell-based; conditions: % reduction of GSPT1 compared to DMSO, normalized to GAPDH, read-out: GSPT1 degradation classification
Method: as §1
Compounds of the present disclosure was added to cells (final DMSO concentration of 0.1%) and incubated for 16 hours. GSPT1 levels were determined in HCC827 cells using Western Blot analysis. […] Protein levels were normalized to GAPDH levels.
The efficacy of GSPT1 degradation of a part of compounds of the present disclosure was determined by treating HCC827 cells at 1 μM (final DMSO concentration of 0.1%) for 16 hours. GSPT1 levels were determined using Western Blot and normalized to GAPDH levels.

[6] = biological target: T1, GSPT1; experiment: cell-based; conditions: read-out: GSPT1 degradation classification
[7] = TABLE 2, MV-4-11 cells assumed, 44 hours
[8] = HCC827 cells, CellTiter-Glo, 72 hours of treatment
[9] = MV4-11, MV-4-11 cells, 1 μM, 6 hours, Western Blot, % reduction of GSPT1 compared to DMSO, normalized to GAPDH
[10] = MV-4-11 cells, 44 hours of treatment, TABLE 1

T1 sequence (P15170 whole entry): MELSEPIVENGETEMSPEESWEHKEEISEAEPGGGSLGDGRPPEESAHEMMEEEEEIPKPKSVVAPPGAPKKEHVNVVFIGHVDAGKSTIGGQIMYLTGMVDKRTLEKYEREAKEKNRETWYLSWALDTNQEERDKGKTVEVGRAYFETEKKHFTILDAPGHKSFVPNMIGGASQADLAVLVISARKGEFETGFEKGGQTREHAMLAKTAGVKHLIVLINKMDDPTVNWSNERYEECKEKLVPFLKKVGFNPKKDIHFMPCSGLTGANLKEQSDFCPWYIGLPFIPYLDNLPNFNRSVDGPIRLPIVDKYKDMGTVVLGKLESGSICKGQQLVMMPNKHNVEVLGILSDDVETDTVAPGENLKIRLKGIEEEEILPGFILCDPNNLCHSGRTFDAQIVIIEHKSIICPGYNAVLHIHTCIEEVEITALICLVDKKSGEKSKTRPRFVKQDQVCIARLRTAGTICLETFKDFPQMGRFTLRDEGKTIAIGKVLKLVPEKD
T1 sequence (Q96SW2 whole entry): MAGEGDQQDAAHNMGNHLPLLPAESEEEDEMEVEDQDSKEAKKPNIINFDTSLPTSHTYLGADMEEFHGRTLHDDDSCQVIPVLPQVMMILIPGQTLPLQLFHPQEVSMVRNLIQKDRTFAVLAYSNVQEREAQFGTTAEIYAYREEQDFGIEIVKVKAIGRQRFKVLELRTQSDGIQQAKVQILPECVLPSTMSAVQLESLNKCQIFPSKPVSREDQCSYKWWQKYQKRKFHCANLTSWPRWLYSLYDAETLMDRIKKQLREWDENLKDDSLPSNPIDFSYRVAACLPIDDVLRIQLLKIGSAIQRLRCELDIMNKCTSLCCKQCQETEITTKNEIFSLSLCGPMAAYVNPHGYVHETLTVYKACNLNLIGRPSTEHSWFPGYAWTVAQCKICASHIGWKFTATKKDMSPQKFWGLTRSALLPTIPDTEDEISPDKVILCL
T1 sequence (Q16531 whole entry partner): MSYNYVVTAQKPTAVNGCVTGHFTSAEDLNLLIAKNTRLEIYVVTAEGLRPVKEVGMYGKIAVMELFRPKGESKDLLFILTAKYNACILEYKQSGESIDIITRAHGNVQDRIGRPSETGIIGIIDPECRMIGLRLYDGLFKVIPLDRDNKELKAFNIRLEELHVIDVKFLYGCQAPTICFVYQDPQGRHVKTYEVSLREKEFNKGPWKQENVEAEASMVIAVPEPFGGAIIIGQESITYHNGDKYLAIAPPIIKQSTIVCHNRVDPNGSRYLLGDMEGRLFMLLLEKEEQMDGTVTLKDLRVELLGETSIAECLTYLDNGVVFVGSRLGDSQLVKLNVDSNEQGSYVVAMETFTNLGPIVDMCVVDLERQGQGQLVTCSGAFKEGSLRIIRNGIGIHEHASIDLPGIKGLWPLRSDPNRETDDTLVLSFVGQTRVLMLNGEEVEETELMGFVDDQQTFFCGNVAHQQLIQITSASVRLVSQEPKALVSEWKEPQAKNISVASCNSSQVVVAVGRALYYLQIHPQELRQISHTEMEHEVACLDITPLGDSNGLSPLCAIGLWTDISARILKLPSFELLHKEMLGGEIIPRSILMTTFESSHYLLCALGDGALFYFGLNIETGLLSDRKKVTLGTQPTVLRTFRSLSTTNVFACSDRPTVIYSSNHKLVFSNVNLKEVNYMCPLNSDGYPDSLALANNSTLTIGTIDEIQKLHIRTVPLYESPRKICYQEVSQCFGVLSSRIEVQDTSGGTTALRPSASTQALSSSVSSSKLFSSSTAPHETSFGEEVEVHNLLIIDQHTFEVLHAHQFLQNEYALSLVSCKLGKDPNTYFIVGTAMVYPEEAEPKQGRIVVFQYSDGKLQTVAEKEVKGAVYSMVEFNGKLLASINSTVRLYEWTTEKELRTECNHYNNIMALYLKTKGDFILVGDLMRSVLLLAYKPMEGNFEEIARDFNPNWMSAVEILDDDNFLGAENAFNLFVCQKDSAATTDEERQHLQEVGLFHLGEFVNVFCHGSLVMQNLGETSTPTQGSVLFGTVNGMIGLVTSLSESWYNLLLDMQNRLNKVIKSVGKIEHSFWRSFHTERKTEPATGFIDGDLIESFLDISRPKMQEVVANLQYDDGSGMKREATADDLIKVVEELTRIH

SMILES: O=C1CCC(N2Cc3cc(C(=O)N4CCc5c(F)ccc(F)c54)ccc3C2=O)C(=O)N1 (stereo not shown) [Example 63, 3-(5-(4,7-difluoroindoline-1-carbonyl)-1-oxoisoindolin-2-yl)piperidine-2,6-dione]
- inhibition at 0.1 µM [1]: < 50%
- IC50 [2, 7]: 0.1 to 1 µM

SMILES: O=C1CCC(N2Cc3cc(C(=O)Nc4nsc5ccccc45)ccc3C2=O)C(=O)N1 (stereo not shown) [Example 89, N-(benzo[d]isothiazol-3-yl)-2-(2,6-dioxopiperidin-3-yl)-1-oxoisoindoline-5-carboxamide]
- IC50 [3, 8]: > 1 µM

SMILES: O=C1CCC(N2Cc3cc(C(=O)Nc4csc5c(F)cccc45)ccc3C2=O)C(=O)N1 (stereo not shown) [Example 70, 2-(2,6-dioxopiperidin-3-yl)-N-(7-fluorobenzo[b]thiophen-3-yl)-1-oxoisoindoline-5-carboxamide]
- inhibition at 0.1 µM [1]: < 50%
- IC50 [2, 7]: < 0.1 µM

SMILES: O=C1CCC(N2Cc3cc(C(=O)Nc4ccccc4F)ccc3C2=O)C(=O)N1 (stereo not shown) [Example 94, 2-(2,6-dioxopiperidin-3-yl)-N-(2-fluorophenyl)-1-oxoisoindoline-5-carboxamide]
- IC50 [4]: > 1 µM

SMILES: O=C1CCC(N2Cc3cc(C(=O)NC45CC(F)(C4)C5)ccc3C2=O)C(=O)N1 (stereo not shown) [Example 71, 2-(2,6-dioxopiperidin-3-yl)-N-(3-fluorobicyclo[1.1.1]pentan-1-yl)-1-oxoisoindoline-5-carboxamide]
- inhibition at 0.1 µM [1]: < 50%
- IC50 [2, 7]: > 1 µM

SMILES: O=C1CCC(N2Cc3cc(C(=O)NC45CCC(F)(CC4)CC5)ccc3C2=O)C(=O)N1 (stereo not shown) [Example 72, 2-(2,6-dioxopiperidin-3-yl)-N-(4-fluorobicyclo[2.2.2]octan-1-yl)-1-oxoisoindoline-5-carboxamide]
- inhibition at 0.1 µM [1]: 50 to 75%
- IC50 [2, 7]: 0.1 to 1 µM

SMILES: O=C1CCC(N2Cc3cc(C(=O)N4CCc5c(F)cc(F)cc54)ccc3C2=O)C(=O)N1 (stereo not shown) [Example 92, 3-(5-(4,6-difluoroindoline-1-carbonyl)-1-oxoisoindolin-2-yl)piperidine-2,6-dione]
- IC50 [4]: < 1 µM

SMILES: O=C1CCC(N2Cc3cc(C(=O)N4Cc5cccc(F)c5C4)ccc3C2=O)C(=O)N1 (stereo not shown) [Example 87, 3-(5-(4-fluoroisoindoline-2-carbonyl)-1-oxoisoindolin-2-yl)piperidine-2,6-dione]
- IC50 ([3]; HCC827, 72 h): < 1 µM
- inhibition at 1 µM [5]: > 75%

SMILES: O=C1CCC(N2Cc3cc(C(=O)Nc4ccccc4)ccc3C2=O)C(=O)N1 (stereo not shown) [Example 93, 2-(2,6-dioxopiperidin-3-yl)-1-oxo-N-phenylisoindoline-5-carboxamide]
- IC50 [4]: 1 to 30 µM

SMILES: O=C1CCC(N2Cc3cc(C(=O)Nc4csc5cccc(F)c45)ccc3C2=O)C(=O)N1 (stereo not shown) [Example 67, 2-(2,6-dioxopiperidin-3-yl)-N-(4-fluorobenzo[b]thiophen-3-yl)-1-oxoisoindoline-5-carboxamide]
- inhibition at 0.1 µM [1]: 50 to 75%
- IC50 [2, 7]: < 0.1 µM

SMILES: O=C1CCC(N2Cc3cc(C(=O)Nc4cscn4)ccc3C2=O)C(=O)N1 (stereo not shown) [Example 90, 2-(2,6-dioxopiperidin-3-yl)-1-oxo-N-(thiazol-4-yl)isoindoline-5-carboxamide]
- IC50 [3, 8]: > 1 µM

SMILES: O=C1CCC(N2Cc3cc(C(=O)N4CCc5c(Cl)ccc(F)c54)ccc3C2=O)C(=O)N1 (stereo not shown) [Example 86, 3-(5-(4-chloro-7-fluoroindoline-1-carbonyl)-1-oxoisoindolin-2-yl)piperidine-2,6-dione]
- IC50 ([3]; HCC827, 72 h): > 1 µM

SMILES: O=C1CCC(N2Cc3cc(C(=O)N4Cc5ccc(F)cc5C4)ccc3C2=O)C(=O)N1 (stereo not shown) [Example 88, 3-(5-(5-fluoroisoindoline-2-carbonyl)-1-oxoisoindolin-2-yl)piperidine-2,6-dione]
- IC50 ([3]; HCC827, 72 h): < 1 µM
- inhibition at 1 µM [5]: > 75%

SMILES: O=C1CCC(N2Cc3cc(C(=O)Nc4csc5ccc(F)cc45)ccc3C2=O)C(=O)N1 (stereo not shown) [Example 68, 2-(2,6-dioxopiperidin-3-yl)-N-(5-fluorobenzo[b]thiophen-3-yl)-1-oxoisoindoline-5-carboxamide]
- inhibition at 0.1 µM [1]: 50 to 75%
- IC50 [2, 7]: < 0.1 µM

SMILES: O=C1CCC(N2Cc3cc(C(=O)N4CCc5c4ccc(F)c5F)ccc3C2=O)C(=O)N1 (stereo not shown) [Example 65, 3-(5-(4,5-difluoroindoline-1-carbonyl)-1-oxoisoindolin-2-yl)piperidine-2,6-dione]
- inhibition at 0.1 µM [1]: < 50%
- IC50 [2, 7]: < 0.1 µM

SMILES: O=C1CCC(N2Cc3cc(C(=O)Nc4csc5cnccc45)ccc3C2=O)C(=O)N1 (stereo not shown) [Example 61, 2-(2,6-dioxopiperidin-3-yl)-1-oxo-N-(thieno[2,3-c]pyridin-3-yl)isoindoline-5-carboxamide]
- inhibition at 1 µM [6, 9]: > 75%
- IC50 [2, 10]: < 0.1 µM

SMILES: O=C1CCC(N2Cc3cc(C(=O)Nc4csc5ccccc45)ccc3C2=O)C(=O)N1 (stereo not shown) [Example 8, N-(benzo[b]thiophen-3-yl)-2-(2,6-dioxopiperidin-3-yl)-1-oxoisoindoline-5-carboxamide]
- inhibition at 1 µM ([6]; MV4-11, 6 h): > 75%
- IC50 [2, 10]: < 0.1 µM

SMILES: O=C1CCC(N2Cc3cc(C(=O)Nc4cccc5cccnc45)ccc3C2=O)C(=O)N1 (stereo not shown) [Example 95, 2-(2,6-dioxopiperidin-3-yl)-1-oxo-N-(quinolin-8-yl)isoindoline-5-carboxamide]
- IC50 [4]: > 1 µM

SMILES: O=C1CCC(N2Cc3cc(C(=O)N4Cc5ccc(C(F)(F)F)cc5C4)ccc3C2=O)C(=O)N1 (stereo not shown) [Example 22, 3-(1-oxo-5-(5-(trifluoromethyl)isoindoline-2-carbonyl)isoindolin-2-yl)piperidine-2,6-dione]
- inhibition at 1 µM [6, 9]: > 75%
- IC50 [2, 10]: < 0.1 µM

SMILES: O=C1CCC(N2Cc3cc(C(=O)N4CCc5c4cccc5C(F)(F)F)ccc3C2=O)C(=O)N1 (stereo not shown) [Example 77, 3-(1-oxo-5-(4-(trifluoromethyl)indoline-1-carbonyl)isoindolin-2-yl)piperidine-2,6-dione]
- inhibition at 1 µM ([6]; MV4-11, 6 h): > 75%
- IC50 [2, 10]: < 0.1 µM

SMILES: O=C1CCC(N2Cc3cc(C(=O)N4CCc5cc(F)cc(F)c54)ccc3C2=O)C(=O)N1 (stereo not shown) [Example 57, 3-(5-(5,7-difluoroindoline-1-carbonyl)-1-oxoisoindolin-2-yl)piperidine-2,6-dione]
- inhibition at 1 µM ([6]; MV4-11, 6 h): 50 to 75%
- IC50 [2, 10]: 0.1 to 1 µM

SMILES: COc1cccc2c1CCN2C(=O)c1ccc2c(c1)CN(C1CCC(=O)NC1=O)C2=O (stereo not shown) [Example 82, 3-(5-(4-methoxyindoline-1-carbonyl)-1-oxoisoindolin-2-yl)piperidine-2,6-dione]
- inhibition at 1 µM [6, 9]: 50 to 75%
- IC50 [2, 10]: < 0.1 µM

SMILES: O=C1CCC(N2Cc3cc(C(=O)N4CCc5ccc(OC(F)(F)F)cc54)ccc3C2=O)C(=O)N1 (stereo not shown) [Example 81, 3-(1-oxo-5-(6-(trifluoromethoxy)indoline-1-carbonyl)isoindolin-2-yl)piperidine-2,6-dione]
- inhibition at 1 µM ([6]; MV4-11, 6 h): < 50%
- IC50 [2, 10]: > 1 µM

SMILES: O=C1CCC(N2Cc3cc(C(=O)Nc4csc5cc(F)ccc45)ccc3C2=O)C(=O)N1 (stereo not shown) [Example 69, 2-(2,6-dioxopiperidin-3-yl)-N-(6-fluorobenzo[b]thiophen-3-yl)-1-oxoisoindoline-5-carboxamide]
- inhibition at 0.1 µM [1]: 50 to 75%
- IC50 [2, 7]: < 0.1 µM

SMILES: O=C1CCC(N2Cc3cc(C(=O)N4CCc5c4ccc(Cl)c5F)ccc3C2=O)C(=O)N1 (stereo not shown) [Example 66, 3-(5-(5-chloro-4-fluoroindoline-1-carbonyl)-1-oxoisoindolin-2-yl)piperidine-2,6-dione]
- inhibition at 0.1 µM [1]: < 50%
- IC50 [2, 7]: < 0.1 µM

— patent US20260285872A1, “COMPOUNDS AND METHODS FOR DEGRADING GSPT1” (priority 2023, published 2026)
